Results published in patent publication US20250171459A1, “2-METHYL-4',5'-DIHYDROSPIRO[PIPERIDINE-4,7'-THIENO[2,3-C]PYRAN] DERIVATIVES AS INHIBITORS OF APOL1 AND METHODS OF USING SAME” (Vertex Pharmaceuticals Incorporated, priority 2022, published 2025).

target: T1, APOL1 (Homo sapiens, UniProt O14791); assay: MultiTox-Fluor Multiplex Cytotoxicity Assay in tet-inducible APOL1 T-REx-HEK293 cells (cell rescue, ratio of dead to live cells); assay type: cell-based; details: tet-inducible transgenic APOL1 T-REx-HEK293 cell lines, 50 ng/mL tet, 24 hours; read-out: IP50 (i.e., IC50 for cell proliferation)
T1 sequence (O14791 1-398 S342G/I384M): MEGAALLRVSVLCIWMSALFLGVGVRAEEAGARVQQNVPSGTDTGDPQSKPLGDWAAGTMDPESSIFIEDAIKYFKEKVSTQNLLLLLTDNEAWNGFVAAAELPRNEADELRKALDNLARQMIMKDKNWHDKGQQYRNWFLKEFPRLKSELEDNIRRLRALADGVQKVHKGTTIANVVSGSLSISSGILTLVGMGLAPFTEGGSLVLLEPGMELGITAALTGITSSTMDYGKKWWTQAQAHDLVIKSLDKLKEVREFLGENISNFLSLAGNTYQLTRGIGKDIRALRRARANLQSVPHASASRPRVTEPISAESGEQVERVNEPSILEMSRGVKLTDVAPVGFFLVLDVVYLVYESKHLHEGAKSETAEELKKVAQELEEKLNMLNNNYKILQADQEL
Summary of the method: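 T-REx-HEK293 cells with tet-inducible APOL1 were treated with compound (10 μM top, 10-point 3-fold dilution, duplicate) plus 50 ng/mL tetracycline for 24 h at 37° C, in DMEM with 2% tet-free FBS. MultiTox-Fluor protease signals gave a dead/live ratio, normalized to no tet (100% viability) and tet alone (0%).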

Compared with `C[C@H]1C[C@@]2(CCN1Cc1ccc(C(=O)N(C)C)cc1)OC[C@H](O)c1cc(Cl)sc12` [Compound 810], `CC(=O)Nc1ccc(CN2CC[C@]3(C[C@@H]2C)OCCc2cc(Cl)sc23)cc1` [Compound 635] is lower in IC50: 100 to 500 nM for the first, under 100 nM for the second.

`C[C@H]1C[C@@]2(CCN1Cc1cnn(CCS(C)(=O)=O)c1)OCC(O)c1cc(C(F)(F)C(F)F)sc12` (single isomer, unassigned) [Compound 1014, (2′S, 7R)-2′-methyl-1′-[[1-(2-methylsulfonylethyl)pyrazol-4-yl]methyl]-2-(1,1,2,2-tetrafluoroethyl)spiro[4,5-dihydrothieno[2,3-c]pyran-7,4′-piperidine]-4-ol] and `C[C@H]1C[C@@]2(CCN1Cc1cnn(CC(O)CC3(C#N)CC3)c1)OC[C@@H](O)c1cc(C(F)(F)F)sc12` (stereo partly drawn) [Compound 973] cannot be ordered by IC50: under 100 nM for the first, under 100 nM for the second.

`CCc1cc2c(s1)CCOC21CCN(Cc2cnn(C(C)=O)c2)CC1` [Compound 1135] and `CCc1cc2c(s1)CCOC21CCN(Cc2cnn(CCS(=O)(=O)N(C)C)c2)CC1` [Compound 1131] fall in the same range of IC50: 100 to 500 nM for the first, 100 to 500 nM for the second.

First: CCc1cc2c(s1)CCOC21CCN(Cc2ccc(C(=O)N(C)[C@H]3CC[C@H](O)CC3)nc2)CC1 [Compound 1065]
Second: CCc1cc2c(s1)CCOC21CCN(Cc2ccc(NS(=O)(=O)C3CC3)nc2)CC1 [Compound 1069]
The IC50 of the first is higher: 500 to 1000 nM for the first, 100 to 500 nM for the second.

First: C[C@H]1C[C@@]2(CCN1C1CC(O)C1)OCCc1cc(CC(F)F)sc12 (stereo partly drawn) [Compound 591]
Second: C[C@H]1C[C@@]2(CCN1Cc1cccc(=O)[nH]1)OCCc1cc(CC(F)F)sc12 [Compound 570]
The IC50 of the first is higher: 500 to 1000 nM for the first, 100 to 500 nM for the second.

`CCc1cc2c(s1)CCOC21CCN(Cc2cn(CC(=O)NCCO)nn2)CC1` [Compound 1095] and `CCc1cc2c(s1)CCOC21CCN(Cc2cn(CCS(=O)(=O)C3CCOCC3)nn2)CC1` [Compound 1091] fall in the same range of IC50: 500 to 1000 nM for the first, 500 to 1000 nM for the second.

Compared with `CCc1cc2c(s1)CCO[C@@]21CCN(C[C@H]2C[C@@H](NC(=O)c3cc(CO)n[nH]3)C2)[C@@H](C)C1` [Compound 363], `CCc1cc2c(s1)CCO[C@@]21CCN(C[C@H]2C[C@@H](NC(=O)C(C)(C)N)C2)[C@@H](C)C1` [Compound 360] is higher in IC50: under 100 nM for the first, 100 to 500 nM for the second.

`CCc1cc2c(s1)CCO[C@@]21CCN(Cc2cnc(N[C@H]3CCC[C@H]3CO)nc2)[C@@H](C)C1` [Compound 219] and `C[C@H]1C[C@@]2(CCN1Cc1cnc(NC(C)(C)CO)nc1)OCCc1sc(Cl)cc12` [Compound 515, 2-[[5-[[(2′S,4R)-2-chloro-2′-methyl-spiro[6,7-dihydrothieno[3,2-c]pyran-4,4′-piperidine]-1′-yl]methyl]pyrimidin-2-yl]amino]-2-methyl-propan-1-ol] cannot be ordered by IC50: under 100 nM for the first, under 100 nM for the second.

`C[C@H]1C[C@@]2(CCN1Cc1cnn(CC(O)CC3(O)CCC3)c1)OCCc1c2sc(C(F)(F)F)c1CO` (stereo partly drawn) [Compound 961] and `C[C@H]1C[C@@]2(CCN1Cc1cnn(C[C@H](O)CC#N)c1)OCCc1c2sc(C(F)(F)F)c1CO` [Compound 918] cannot be ordered by IC50: under 100 nM for the first, under 100 nM for the second.

Compared with `Cc1cc2c(s1)CCO[C@@]21CCN(C2COCC2O)[C@@H](C)C1` (single isomer, unassigned) [Compound 500], `CCc1cc2c(s1)CCO[C@@]21CCN(CC(O)C(N)=O)[C@@H](C)C1` (stereo partly drawn) [Compound 240] is higher in IC50: under 100 nM for the first, 100 to 500 nM for the second.

First: CC(c1nnc[nH]1)n1cc(CN2CC[C@]3(C[C@@H]2C)OCCc2c3sc(C(F)(F)F)c2CO)cn1 (stereo partly drawn) [Compound 925]
Second: C[C@H]1C[C@@]2(CCN1Cc1ccc3c(c1)n(C)c(=O)n3C)OCCc1c2sc(C(F)(F)F)c1CO [Compound 877]
The IC50 of the first is higher: 100 to 500 nM for the first, under 100 nM for the second. The second is the more potent here.

First: C[C@H]1C[C@@]2(CCN1Cc1cc(F)c[nH]c1=O)OCCc1cc(CC(F)F)sc12 [Compound 588]
Second: C[C@H]1C[C@@]2(CCN1Cc1cn(CCCS(C)(=O)=O)nn1)OCCc1cc(CC(F)F)sc12 [Compound 545]
The IC50 of the first is higher: 500 to 1000 nM for the first, under 100 nM for the second.

`CCc1cc2c(s1)CCOC21CCN(Cc2cn(CC(O)C3CCOCC3)nn2)C(C)C1` (stereo not drawn) [Compound 86] and `CCc1cc2c(s1)CCO[C@@]21CCN(Cc2cn(CC3CCO3)nn2)[C@@H](C)C1` (stereo partly drawn) [Compound 33] cannot be ordered by IC50: under 100 nM for the first, under 100 nM for the second.

`CCc1cc2c(s1)CCOC21CCN(Cc2cn(C(C)CC(N)=O)nn2)C(C)C1` (stereo not drawn) [Compound 148] and `CCc1cc2c(s1)CCO[C@@]21CCN(Cc2cn(C3CC(O)C3)nn2)[C@@H](C)C1` (stereo partly drawn) [Compound 152] fall in the same range of IC50: 100 to 500 nM for the first, 100 to 500 nM for the second.

Compared with `CCc1cc2c(s1)CCO[C@@]21CCN(Cc2cn(CC3CCCN(S(C)(=O)=O)C3)nn2)[C@@H](C)C1` (stereo partly drawn) [Compound 187], `CCc1cc2c(s1)CCO[C@@]21CCN(Cc2cn(CCN3CCCC3=O)nn2)[C@@H](C)C1` [Compound 194] is higher in IC50: 100 to 500 nM for the first, 500 to 1000 nM for the second.

First: CCc1cc2c(s1)CCO[C@@]21CCN(CC2CN(C(=O)C(=O)c3cnc[nH]3)C2)[C@@H](C)C1 [Compound 482]
Second: CCc1cc2c(s1)CCO[C@@]21CCN(CC2CN(C(=O)CCS(N)(=O)=O)C2)[C@@H](C)C1 [Compound 453]
The IC50 of the first is lower: under 100 nM for the first, 100 to 500 nM for the second.

First: C[C@H]1C[C@@]2(CCN1Cc1cn[nH]c1)OC[C@@H](O)c1cc(C(F)(F)F)sc12 [Compound 874, (2′S,4S,7R)-2′-methyl-1′-(1H-pyrazol-4-ylmethyl)-2-(trifluoromethyl)spiro[4,5-dihydrothieno[2,3-c]pyran-7,4′-piperidine]-4-ol]
Second: CCc1cc2c(s1)CCO[C@@]21CCN(Cc2cnn(CCS(C)(=O)=O)c2)[C@H](C)C1 [Compound 272]
The IC50 of the first is lower: under 100 nM for the first, 100 to 500 nM for the second. The first is the more potent here.

Compared with `CCc1cc2c(s1)CCOC21CCN(Cc2cn(C3CC(F)(F)C3)nn2)CC1` [Compound 1105], `CCc1cc2c(s1)CCOC21CCN(Cc2cnn(C)c2)C(CC)C1` (stereo not drawn) [Compound 1041, 2,2′-diethyl-1-((1-methyl-1H-pyrazol-4-yl)methyl)-6′,7′-dihydrospiro[piperidine-4,4′-thieno [3,2-c]pyran]] is lower in IC50: 500 to 1000 nM for the first, under 100 nM for the second. The second is the more potent here.

First: CCc1cc2c(s1)CCO[C@@]21CCN(C[C@H]2C[C@@H](NC(=O)C3CC3C(=O)N(C)C)C2)[C@@H](C)C1 (stereo partly drawn) [Compound 367]
Second: CCc1cc2c(s1)CCO[C@@]21CCN(C[C@H]2C[C@@H](NC(=O)C(O)C(C)C)C2)[C@@H](C)C1 (stereo partly drawn) [Compound 319]
The IC50 of the first is higher: 100 to 500 nM for the first, under 100 nM for the second.

`C[C@H]1C[C@@]2(CCN1Cc1ccnn1C)OCCc1cc(Cl)sc12` [Compound 681] and `C[C@H]1C[C@@]2(CCN1CCC1CCOCC1)OCCc1cc(Cl)sc12` [Compound 673] fall in the same range of IC50: 500 to 1000 nM for the first, 500 to 1000 nM for the second.

First: CCc1cc2c(s1)CCO[C@@]21CCN(Cc2cn(Cc3cnccn3)nn2)[C@@H](C)C1 [Compound 38]
Second: C[C@H]1C[C@@]2(CCN1Cc1cn(CCS(C)(=O)=O)nn1)OCCc1sc(Cl)cc12 [Compound 511]
The IC50 of the first is higher: 100 to 500 nM for the first, under 100 nM for the second. The second is the more potent here.

First: C[C@H]1CC2(CCN1Cc1cnn(CCS(C)(=O)=O)c1)OCCc1c2sc2ccccc12 (stereo partly drawn) [Compound 1023, (2′S)-2′-methyl-1′-((1-(2-(methylsulfonyl)ethyl)-1H-pyrazol-4-yl)methyl)-3,4-dihydrospiro[benzo[4,5]thieno[2,3-c]pyran-1,4′-piperidine]]
Second: Cc1sc2c(c1C)[C@]1(CCN(Cc3cnn(C)c3)[C@@H](C)C1)OCC2 [Compound 519, (2′S,4R)-2,2′,3-trimethyl-1′-[(1-methylpyrazol-4-yl)methyl]spiro[6,7-dihydrothieno[3,2-c]pyran-4,4′-piperidine]]
The IC50 of the first is higher: 500 to 1000 nM for the first, under 100 nM for the second. The second is the more potent here.

With `CCc1cc2c(s1)CCOC21CCN(Cc2ccc(NCC3CCOCC3)nc2)CC1` [Compound 1068] the IC50 was under 100 nM.
